How the values were obtained:
[1] = molecular target: Macrophage metalloelastase (Homo sapiens, UniProt P39900); test: (§1) Inhibition Assay: The inhibition tests and the evaluation of the inhibition constants (Ki) on the various MMPs were carried out as described by Devel et al. (Devel et al. 2006 J. Biol. Chem. (7)).
[2] = molecular target: Matrix metalloproteinase-9 (Homo sapiens, UniProt P14780); test: as §1
Neutrophil collagenase = Neutrophil collagenase (Homo sapiens, UniProt P22894); test: as §1
Stromelysin-1 = Stromelysin-1 (Homo sapiens, UniProt P08254); test: as §1
[3] = molecular target: 72 kDa type IV collagenase (Homo sapiens, UniProt P08253); test: as §1
Stromelysin-2 = Stromelysin-2 (Homo sapiens, UniProt P09238); test: as §1
Collagenase 3 = Collagenase 3 (Homo sapiens, UniProt P45452); test: as §1
[4] = molecular target: Matrix metalloproteinase-14 (Homo sapiens, UniProt P50281); test: as §1

Chain of Stromelysin-1 (P08254 whole entry): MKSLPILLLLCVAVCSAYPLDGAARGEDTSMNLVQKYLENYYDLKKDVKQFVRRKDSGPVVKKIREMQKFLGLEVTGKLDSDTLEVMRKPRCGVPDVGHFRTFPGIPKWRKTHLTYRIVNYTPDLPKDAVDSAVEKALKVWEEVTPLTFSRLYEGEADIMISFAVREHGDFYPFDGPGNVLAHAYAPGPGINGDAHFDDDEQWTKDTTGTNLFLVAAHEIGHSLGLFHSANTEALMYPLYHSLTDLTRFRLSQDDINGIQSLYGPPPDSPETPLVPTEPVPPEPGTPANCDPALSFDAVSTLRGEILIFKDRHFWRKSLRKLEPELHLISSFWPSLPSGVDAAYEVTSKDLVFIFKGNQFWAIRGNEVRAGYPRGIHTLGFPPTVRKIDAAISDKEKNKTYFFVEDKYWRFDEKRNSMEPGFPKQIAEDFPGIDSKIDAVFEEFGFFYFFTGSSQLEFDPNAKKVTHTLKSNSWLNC
Chain of Neutrophil collagenase (P22894 whole entry): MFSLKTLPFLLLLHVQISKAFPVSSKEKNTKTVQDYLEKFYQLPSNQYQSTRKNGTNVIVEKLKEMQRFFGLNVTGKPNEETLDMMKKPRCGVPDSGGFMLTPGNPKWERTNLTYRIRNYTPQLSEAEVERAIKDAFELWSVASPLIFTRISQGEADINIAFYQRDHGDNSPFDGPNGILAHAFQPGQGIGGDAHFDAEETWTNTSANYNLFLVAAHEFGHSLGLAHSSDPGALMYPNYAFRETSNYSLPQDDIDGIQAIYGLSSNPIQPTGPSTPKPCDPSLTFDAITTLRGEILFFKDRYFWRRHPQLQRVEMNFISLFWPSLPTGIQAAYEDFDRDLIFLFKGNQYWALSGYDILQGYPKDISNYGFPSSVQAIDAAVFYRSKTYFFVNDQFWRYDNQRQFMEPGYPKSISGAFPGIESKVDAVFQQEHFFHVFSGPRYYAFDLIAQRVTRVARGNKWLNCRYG
Chain of 72 kDa type IV collagenase (P08253 whole entry): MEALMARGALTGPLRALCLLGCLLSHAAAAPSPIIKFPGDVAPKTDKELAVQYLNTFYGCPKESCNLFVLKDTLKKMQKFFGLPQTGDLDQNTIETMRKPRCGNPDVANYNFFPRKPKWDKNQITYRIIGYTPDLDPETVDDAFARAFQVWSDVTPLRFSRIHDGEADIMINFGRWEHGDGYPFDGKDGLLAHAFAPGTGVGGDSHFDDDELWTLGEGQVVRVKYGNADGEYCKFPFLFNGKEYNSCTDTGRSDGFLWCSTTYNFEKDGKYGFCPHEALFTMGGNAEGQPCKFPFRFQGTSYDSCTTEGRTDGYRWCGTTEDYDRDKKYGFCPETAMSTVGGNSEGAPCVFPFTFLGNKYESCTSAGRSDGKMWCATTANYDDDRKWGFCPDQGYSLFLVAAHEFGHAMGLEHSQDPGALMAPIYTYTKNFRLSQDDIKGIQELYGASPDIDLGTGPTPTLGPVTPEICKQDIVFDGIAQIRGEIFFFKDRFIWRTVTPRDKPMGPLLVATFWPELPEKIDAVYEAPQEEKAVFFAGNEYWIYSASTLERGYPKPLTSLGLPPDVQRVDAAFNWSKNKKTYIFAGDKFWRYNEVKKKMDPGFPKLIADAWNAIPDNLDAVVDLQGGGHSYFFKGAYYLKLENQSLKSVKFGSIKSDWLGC
Chain of Stromelysin-2 (P09238 whole entry): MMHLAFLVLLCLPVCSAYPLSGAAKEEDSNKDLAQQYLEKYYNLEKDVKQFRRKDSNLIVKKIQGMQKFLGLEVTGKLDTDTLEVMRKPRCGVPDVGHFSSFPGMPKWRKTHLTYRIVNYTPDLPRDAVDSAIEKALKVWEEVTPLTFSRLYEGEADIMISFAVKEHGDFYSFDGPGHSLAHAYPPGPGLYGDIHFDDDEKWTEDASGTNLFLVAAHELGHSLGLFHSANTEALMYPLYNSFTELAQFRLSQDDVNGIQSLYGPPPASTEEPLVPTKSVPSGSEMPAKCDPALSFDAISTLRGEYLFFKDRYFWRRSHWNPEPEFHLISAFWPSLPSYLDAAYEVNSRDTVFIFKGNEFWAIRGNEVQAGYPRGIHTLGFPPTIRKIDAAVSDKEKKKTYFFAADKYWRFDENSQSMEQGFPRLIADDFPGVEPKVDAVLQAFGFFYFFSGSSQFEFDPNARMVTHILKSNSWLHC
Chain of Macrophage metalloelastase (P39900 whole entry): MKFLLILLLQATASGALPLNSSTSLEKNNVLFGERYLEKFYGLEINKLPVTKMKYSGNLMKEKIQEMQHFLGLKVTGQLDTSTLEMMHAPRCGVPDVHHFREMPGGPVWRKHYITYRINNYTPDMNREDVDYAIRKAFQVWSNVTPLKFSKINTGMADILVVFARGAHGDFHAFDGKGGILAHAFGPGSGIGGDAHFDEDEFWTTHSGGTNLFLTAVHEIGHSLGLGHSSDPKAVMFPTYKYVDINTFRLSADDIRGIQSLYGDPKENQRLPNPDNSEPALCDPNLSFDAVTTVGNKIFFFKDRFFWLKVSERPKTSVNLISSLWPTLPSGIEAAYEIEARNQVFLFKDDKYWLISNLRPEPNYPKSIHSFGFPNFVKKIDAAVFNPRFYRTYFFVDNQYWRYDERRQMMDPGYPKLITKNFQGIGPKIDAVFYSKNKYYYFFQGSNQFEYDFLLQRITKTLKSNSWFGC
Chain of Matrix metalloproteinase-9 (P14780 whole entry): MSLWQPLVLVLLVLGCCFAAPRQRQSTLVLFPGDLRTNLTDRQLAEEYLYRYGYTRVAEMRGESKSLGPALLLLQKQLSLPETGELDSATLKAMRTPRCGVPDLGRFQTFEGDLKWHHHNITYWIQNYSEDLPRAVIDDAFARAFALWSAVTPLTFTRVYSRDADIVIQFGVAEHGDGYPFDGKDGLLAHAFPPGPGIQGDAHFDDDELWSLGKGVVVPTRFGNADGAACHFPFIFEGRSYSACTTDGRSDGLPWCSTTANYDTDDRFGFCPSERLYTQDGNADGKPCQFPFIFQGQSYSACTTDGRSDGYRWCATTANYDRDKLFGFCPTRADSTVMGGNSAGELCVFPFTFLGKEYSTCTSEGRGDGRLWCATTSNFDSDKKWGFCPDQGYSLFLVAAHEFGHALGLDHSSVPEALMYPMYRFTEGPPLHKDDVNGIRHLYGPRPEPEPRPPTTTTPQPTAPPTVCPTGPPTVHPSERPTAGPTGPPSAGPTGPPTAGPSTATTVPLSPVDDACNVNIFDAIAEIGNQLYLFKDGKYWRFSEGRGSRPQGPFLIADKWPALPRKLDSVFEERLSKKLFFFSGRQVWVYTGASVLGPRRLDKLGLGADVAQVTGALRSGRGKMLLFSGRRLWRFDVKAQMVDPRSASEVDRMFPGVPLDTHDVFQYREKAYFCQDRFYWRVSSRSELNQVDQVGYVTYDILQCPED

NC(=O)CC[C@H](NC(=O)CCc1ccc(-c2cc(-c3ccccc3)cs2)cc1)C(=O)N[C@@H](CCC(=O)O)C(N)=O
Ki [1]: 317 nM
Ki [2]: > 5 µM
Ki (Neutrophil collagenase): > 10 µM
Ki (Stromelysin-1): > 10 µM
Ki [3]: > 5 µM
Ki (Stromelysin-2): > 10 µM
Ki (Collagenase 3): > 1000 nM
Ki [4]: > 10 µM

Reference: ChEMBL document CHEMBL3638630 (2014)
